Measured values reported in patent US11161839B2, “2-quinolone derived inhibitors of BCL6” (Cancer Research Technology Limited, priority 2017, dated 2021).

Target: human BCL6 BTB domain (Trx-6xHis-BCL6) (Homo sapiens (Human), UniProt P41182)
Test: HTRF in vitro assay (BCL6 BTB domain / BCOR-AF633 peptide)
Format: binding
[1] = further generated data (Table 1b), 1 nM Trx-6xHis-BCL6, 0.5 nM anti-6xHis-Terbium cryptate

SMILES	HTRF pIC50 [1]	HTRF pIC50 (initially generated data (Table 1a), 10 nM Trx-6xHis-BCL6, 1 nM anti-6xHis-Terbium cryptate)	IC50 (further generated data (Table 1b), 1 nM Trx-6xHis-BCL6, 0.5 nM anti-6xHis-Terbium cryptate, read-out: HTRF pIC50 (converted)) [nM]
Cc1nccc(Nc2ccc3c(c2)c(NC(C)c2ncccn2)cc(=O)n3C)c1C#N (stereo not shown) [Example 18a, 2-methyl-4-((1-methyl-2-oxo-4-((1-(pyrimidin-2-yl)ethyl)amino)-1,2-dihydroquinolin-6-yl)amino)nicotinonitrile]	6.30	–	–
CC(Nc1cc(=O)n(C)c2ccc(Nc3cc(C(=O)O)nc(Cl)c3C#N)cc12)c1ncc(C2CC2)cn1 (stereo not shown) [Example 9p, 6-chloro-5-cyano-4-((4-((1-(5-cyclopropylpyrimidin-2-yl)ethyl)amino)-1-methyl-2-oxo-1,2-dihydroquinolin-6-yl)amino)picolinic acid]	7.25	–	–
COC1CCC1Nc1cc(=O)n(C)c2ccc(Nc3ccnc(Cl)c3C#N)cc12 (racemic) [Example 22b, rac-2-chloro-4-((4-(((1R,2S)-2-methoxycyclobutyl)amino)-1-methyl-2-oxo-1,2-dihydroquinolin-6-yl)amino)nicotinonitrile or rac-2-chloro-4-((4-(((1R,2R)-2-methoxycyclobutyl)amino)-1-methyl-2-oxo-1,2-dihydroquinolin-6-yl)amino)nicotinonitrile]	–	–	575
CNC(=O)c1cc(Nc2ccc3c(c2)c(NC(C)(C)C)cc(=O)n3C)c(C#N)c(Cl)n1 [Example 7c, 4-((4-(tert-butylamino)-1-methyl-2-oxo-1,2-dihydroquinolin-6-yl)amino)-6-chloro-5-cyano-N-methylpicolinamide]	6.33	–	–
CC(Nc1cc(=O)n(Cc2ccccc2)c2ccc(Nc3cc(C(=O)O)nc(Cl)c3C#N)cc12)c1ncccn1 (stereo not shown) [Example 9q, 4-((1-benzyl-2-oxo-4-((1-(pyrimidin-2-yl)ethyl)amino)-1,2-dihydroquinolin-6-yl)amino)-6-chloro-5-cyanopicolinic acid]	6.81	–	–
C[C@@H]1CN(c2cc(Nc3ccc4c(c3)c(N[C@H](C)C3CC3)cc(=O)n4C)c(Cl)cn2)C[C@H](C)O1 [Example 6h, 6-((5-chloro-2-((2S,6R)-2,6-dimethylmorpholino)pyridin-4-yl)amino)-4-(((R)-1-cyclopropylethyl)amino)-1-methylquinolin-2(1H)-one]	6.00	–	–
CNC(=O)c1cc(Nc2ccc3c(c2)c(NC2(C#N)CC2)cc(=O)n3C)c(C#N)c(Cl)n1 [Example 24a, 6-chloro-5-cyano-4-((4-((1-cyanocyclopropyl)amino)-1-methyl-2-oxo-1,2-dihydroquinolin-6-yl)amino)-N-methylpicolinamide]	6.84	–	–

The remaining lines, values ahead:

HTRF pIC50 [1]	HTRF pIC50 (initially generated data (Table 1a), 10 nM Trx-6xHis-BCL6, 1 nM anti-6xHis-Terbium cryptate)	IC50 (further generated data (Table 1b), 1 nM Trx-6xHis-BCL6, 0.5 nM anti-6xHis-Terbium cryptate, read-out: HTRF pIC50 (converted)) [nM]	SMILES
6.55	6.41	–	Cn1c(=O)cc(NC2CC2)c2cc(Nc3cc(C(=O)O)nc(Cl)c3C#N)ccc21 [Example 2b, 6-chloro-5-cyano-4-[[4-(cyclopropylamino)-1-methyl-2-oxo-6-quinolyl]amino]pyridine-2-carboxylic acid]
7.74	–	–	Cn1c(=O)cc(NC(C)(C)c2ncc(C3CC3)cn2)c2cc(Nc3cc(C(=O)O)nc(Cl)c3C#N)ccc21 [Example 9a, 6-chloro-5-cyano-4-((4-((2-(5-cyclopropylpyrimidin-2-yl)propan-2-yl)amino)-1-methyl-2-oxo-1,2-dihydroquinolin-6-yl)amino)picolinic acid]
6.56	–	–	Cn1c(=O)cc(NCC2CC2)c2cc(Nc3cc(C(=O)O)nc(Cl)c3C#N)ccc21 [Example 9l, 6-chloro-5-cyano-4-((4-((cyclopropylmethyl)amino)-1-methyl-2-oxo-1,2-dihydroquinolin-6-yl)amino)picolinic acid]
7.05	–	–	Cn1c(=O)cc(NC2(C#N)CC2)c2cc(Nc3cc(C(=O)O)nc(Cl)c3C#N)ccc21 [Example 9g, 6-chloro-5-cyano-4-((4-((1-cyanocyclopropyl)amino)-1-methyl-2-oxo-1,2-dihydroquinolin-6-yl)amino)picolinic acid]
7.13	–	–	C[C@@H](Nc1cc(=O)n(C)c2ccc(Nc3cc(C(=O)O)nc(Cl)c3C#N)cc12)C1CC1 [Example 9b, (R)-6-chloro-5-cyano-4-((4-((1-cyclopropylethyl)amino)-1-methyl-2-oxo-1,2-dihydroquinolin-6-yl)amino)picolinic acid]
